Measurements as given in the SangsterLogP compilation.

Assay: method code SF-AS, from DOI: 10.1111/j.1399-3011.1986.tb03252.x
Settings: pH 7.0

logD | SMILES
2.09 | CC(=O)NC(Cc1ccccc1)(Cc1ccccc1)C(N)=O
0.05 | C=CCC(CC=C)(NC(C)=O)C(N)=O
0.75 | CCCC(CCC)(NC(C)=O)C(N)=O
-0.86 | C=CCC(NC(C)=O)C(N)=O (stereo not drawn)
-0.45 | CCCC(NC(C)=O)C(N)=O (stereo not drawn)
-0.87 | CC(=O)NC(C)(C)C(N)=O
-1.68 | CC(=O)NCC(N)=O
-1.41 | CC(=O)NC(C)C(N)=O (stereo not drawn)
